Data as given in patent US20240336596A1, “PARP7 INHIBITOR AND USE THEREOF” (NOVOSTAR PHARMACEUTICALS, LTD., priority 2022, published 2024).

How the values were obtained:
NCI-H1373 cancer cells = assay: NCI-H1373 cancer cell growth inhibition (CellTiter-Glo, 144 hours); type: cell-based; details: Homo sapiens, 144 hours culture
Description: Promega CellTiter-Glo cell activity assay kit (Item No.: Promege-G7573) was used to determine the cell activity. 90 μL NCI-H1373 cell suspension (ATCC, catalog No. CRL-5866, batch No. 58078716) was spread into the pores of the 96-well plate with 3500 cells per well. After 24 hours, the 10 μL prepared 10× compound working solution was added into the pores of the cell culture plate with a final concentration of 10 μM. 3.3333 μM, 1.1111 μM, 0.3704 μM, 0.1235 μM, 0.0412 μM, 0.0137 μM, 0.0046 μM, 0.0015 μM, 0.0005 μM, 10 μL DMSO was added to the solvent control, and the final concentration of DMSO was 0.2%. The 0-day plates were collected for analysis, and after 144 hours of culture, the growth condition of cells was detected according to the instructions of CellTiter-Glo cell activity assay kit. Add 50 μL of CellTiter-Glo working liquid into each hole of the cell culture plate, shake the plates in the dark for 2 minutes until cell lysis, and place at room temperature for 10 minutes to detect the luminous signal (RUL) of each cell hole on the 2104En Vision board reader.
Calculation formula: Growth inhibition rate %=(1−(RLU compound−RLU Day0)/(RLU solvent control−RLU Day0))*100%. The dose-response curves of each compound were fitted by GraphPad Prism 8 to obtain IC50 values.
For the matter, IC50 values less than 0.1 μM are labeled “+++”, values from 0.1 to 1 μM are labeled “++”, and values greater than 1 to 10 μM are labeled “+”.

[1] = target: T1, recombinant human PARP7 protein (Homo sapiens, UniProt Q7Z3E1); assay: Inhibition of PARP7 biological enzyme activity (histone-coated plate, Biotin-NAD+, chemiluminescence); type: biochemical; details: recombinant human PARP7, Biotin-NAD+ substrate
T1 construct: purchased Abcam ab271651
T1 sequence (Q7Z3E1 1-657): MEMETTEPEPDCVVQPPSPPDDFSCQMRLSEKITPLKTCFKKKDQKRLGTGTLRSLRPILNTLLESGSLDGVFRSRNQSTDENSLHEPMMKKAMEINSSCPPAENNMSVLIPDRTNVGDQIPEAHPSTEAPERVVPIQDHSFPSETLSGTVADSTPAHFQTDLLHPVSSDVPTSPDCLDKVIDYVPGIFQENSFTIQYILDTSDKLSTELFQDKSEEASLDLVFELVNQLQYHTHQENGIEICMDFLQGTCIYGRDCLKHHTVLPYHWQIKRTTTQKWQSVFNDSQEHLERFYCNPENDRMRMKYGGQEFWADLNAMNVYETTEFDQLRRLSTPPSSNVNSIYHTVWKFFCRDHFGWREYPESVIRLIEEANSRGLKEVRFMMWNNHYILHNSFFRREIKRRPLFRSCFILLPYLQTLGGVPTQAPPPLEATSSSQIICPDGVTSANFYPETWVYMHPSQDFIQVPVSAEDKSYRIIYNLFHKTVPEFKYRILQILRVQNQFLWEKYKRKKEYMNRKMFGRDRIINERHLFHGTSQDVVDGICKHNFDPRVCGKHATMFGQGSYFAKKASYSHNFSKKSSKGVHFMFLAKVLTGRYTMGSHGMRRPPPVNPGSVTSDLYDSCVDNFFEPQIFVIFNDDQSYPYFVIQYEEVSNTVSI
Description: The recombinant human PARP7 protein kit (Abcam, catalog number ab271651) was used for the assay. According to the kit instructions, 30 μL of histone coating solution (1.5 μg/mL) was first applied to the 384 well holes of the reaction plate and coated at 4° C. for 2 hours. Then, the histone coated solution was washed off, and 50 μL sealing buffer was added to each well, and the sealing buffer was washed off after incubation at 25° C. for 60 minutes. 1000 times the concentration of the compound was 10 configured and diluted from 1 mM to 0.05 μM, and the configured compound was transferred to 384-well plates with 25 nL per well using Echo. The final concentration of the compound in the reaction system was 1000 nM, 333.33 nM, 111.11 nM, 37.03 nM, 12.34 nM, 4.11 nM, 1.37 nM, 0.45 nM, 0.15 nM, 0.05 nM, which was used as the test hole. At the same time, 25 nL DMSO was added to the negative control well and the positive control well. The PARP7 enzyme solution with a concentration of 1.67 times was prepared, and the PARP7 enzyme solution was added to the test hole and the positive control hole with 15 μL each, while the negative control hole was added with 15 μL base Buffer, and incubated at 25° C. for 15 minutes. Then 10 μL 2.5 times Biotin-NAD+ substrate solution was added and incubated at 25° C. for 60 min. After the reaction solution was washed off, the 384-well reaction plates were treated with closed buffer solution diluted with streptavidin-HRP (1:500), each well was 30 μL, and incubated at 25° C. for 30 min. After the HRP buffer was washed off, 30 μL HRP chemiluminescent substrate mixture was added to each well, and the luminescence signal (RLU) of each well was detected by Envision. Calculation formula: Inhibition rate %=(average positive control-RLU compound)/(average positive control-average negative control))*100%. The dose-response curves of each compound were fitted by GraphPad Prism 8 to get IC50 values. IC50 values less than 0.01 μM are labeled as “+++”, IC50 values from 0.01 to 0.1 µM are labeled as “++”, and IC50 values greater than 0.1 to 10.0 μM are labeled as “+”.

| IC50 (NCI-H1373 cancer cells) | IC50 [1] | Structure (SMILES) |
| --- | --- | --- |
| 1000 to 10000 nM | – | C[C@@H](CONS(=O)(=O)CC1CCN(c2ncc(C(F)(F)F)cn2)CC1)Nc1cn[nH]c(=O)c1C(F)(F)F [Example 47, (S)—N-(2-((6-oxo-5-(trifluoromethyl)-1,6-dihydropyridazin-4-yl)amino)propoxy)-1-(1-(5-(trifluoromethyl)pyrimidin-2-yl)piperidin-4-yl)methanesulfonamide] |
| 1000 to 10000 nM | – | [2H]C(C(=O)NOC[C@H](C)Nc1cn[nH]c(=O)c1C(F)(F)F)C1=CCN(c2ncc(C(F)(F)F)cn2)CC1 (stereo partly drawn) [Example 62] |
| 1000 to 10000 nM | – | C[C@@H](CONC(=O)CC1CCN(c2ncc3c(n2)CCC3=O)CC1)Nc1cn[nH]c(=O)c1C(F)(F)F [Example 42, (S)—N-(2-((6-oxo-5-(trifluoromethyl)-1,6-dihydropyridazin-4-yl)amino)propoxy)-2-(1-(5-oxo-6,7-dihydro-5H-cyclopenta(d)pyrimidin-2-yl)piperidin-4-yl)acetamide] |
| 1000 to 10000 nM | – | C[C@@H](CONC(=O)C[C@H]1CCN(c2ncc(C(F)(F)F)cn2)C[C@@H]1O)Nc1cn[nH]c(=O)c1C(F)(F)F [Example 55, 2-((3R,4R)-3-hydroxy-1-(5-(trifluoromethyl)pyrimidin-2-yl)piperidin-4-yl)-N—((S)-2-((6-oxo-5-(trifluoromethyl)-1,6-dihydropyridazin-4-yl)amino)propoxy)acetamide] |
| 1000 to 10000 nM | – | C[C@@H](CONC(=O)CC1CCN(c2ncc3c(n2)CC[C@@]3(C)O)CC1)Nc1cn[nH]c(=O)c1C(F)(F)F [Example 61] |
| 100 to 1000 nM | – | CC1=C(CC(=O)NOC[C@H](C)Nc2cn[nH]c(=O)c2C(F)(F)F)CCN(c2ncc(C3CC3)cn2)C1 [Example 31, (S)-2-(1-(5-cyclopropylpyrimidin-2-yl)-5-methyl-1,2,3,6-tetrahydropyridin-4-yl)-N-(2-((6-oxo-5-(trifluoromethyl)-1,6-dihydropyridazin-4-yl)amino)propoxy)acetamide] |
| 100 to 1000 nM | – | C[C@@H](CONC(=O)CC1CCN(c2ccc(C(F)(F)F)cn2)CC1)Nc1cn[nH]c(=O)c1C(F)(F)F [Example 32, (S)—N-(2-((6-oxo-5-(trifluoromethyl)-1,6-dihydropyridazin-4-yl)amino)propoxy)-2-(1-(5-(trifluoromethyl)pyridin-2-yl)piperidin-4-yl)acetamide] |
| – | 10 to 100 nM | CCN(C[C@H](C)Nc1cn[nH]c(=O)c1C(F)(F)F)OCC(=O)N1CCN(c2ncc(C(F)(F)F)cn2)CC1 [Example 3, (S)-5-((1-(ethyl(2-oxo-2-(4-(5-(trifluoromethyl)pyrimidin-2-yl)piperazin-1-yl)ethoxy)amino)propan-2-yl)amino)-4-(trifluoromethyl)pyridazin-3(2H)-one] |
| 1000 to 10000 nM | – | C[C@@H](CONC(=O)C=C1CCN(c2ncc(C(F)(F)F)cn2)CC1)Nc1cn[nH]c(=O)c1C(F)(F)F [Example 20, (S)—N-(2-((6-oxo-5-(trifluoromethyl)-1,6-dihydropyridazin-4-yl)amino)propoxy)-2-(1-(5-(trifluoromethyl)pyrimidin-2-yl)piperidin-4-ylidene)acetamide] |
| – | 10 to 100 nM | C/C(=N\OC[C@H](C)Nc1cn[nH]c(=O)c1C(F)(F)F)C(=O)N1CCN(c2ncc(C(F)(F)F)cn2)CC1 [Example 16, (S,E)-5-((1-(((1-oxo-1-(4-(5-(trifluoromethyl)pyrimidin-2-yl)piperazin-1-yl)propan-2-ylidene)amino)oxy)propan-2-yl)amino)-4-(trifluoromethyl)pyridazin-3(2H)-one] |
| – | < 10 nM | C[C@@H](CNOCC(=O)N1CCN(c2ncc(C(F)(F)F)cn2)CC1)Nc1cn[nH]c(=O)c1C(F)(F)F [Example 1, (S)-5-((1-((2-oxo-2-(4-(5-(trifluoromethyl)pyrimidin-2-yl)piperazin-1-yl)ethoxy)amino)propan-2-yl)amino)-4-(trifluoromethyl)pyridazin-3(2H)-one] |
| 1000 to 10000 nM | – | C[C@@H](CONC(=O)C1(C2CCN(c3ncc(C(F)(F)F)cn3)CC2)CC1)Nc1cn[nH]c(=O)c1C(F)(F)F [Example 50, (S)—N-(2-((6-oxo-5-(trifluoromethyl)-1,6-dihydropyridazin-4-yl)amino)propoxy)-1-(1-(5-(trifluoromethyl)pyrimidin-2-yl)piperidin-4-yl)cyclopropanecarboxamide] |
| 1000 to 10000 nM | – | C[C@@H](CONC(=O)C[C@H]1CCN(c2ncc(C(F)(F)F)cn2)C[C@H]1O)Nc1cn[nH]c(=O)c1C(F)(F)F [Example 54, 2-((3S,4R)-3-hydroxy-1-(5-(trifluoromethyl)pyrimidin-2-yl)piperidin-4-yl)-N—((S)-2-((6-oxo-5-(trifluoromethyl)-1,6-dihydropyridazin-4-yl)amino)propoxy)acetamide] |
| – | 10 to 100 nM | C/C(=N\OCC(=O)N1CCN(c2ncc(C(F)(F)F)cn2)CC1)[C@H](C)Nc1cn[nH]c(=O)c1C(F)(F)F [Example 8, (S,E)-5-((3-((2-oxo-2-(4-(5-(trifluoromethyl)pyrimidin-2-yl)piperazin-1-yl)ethoxy)imino)butan-2-yl)amino)-4-(trifluoromethyl)pyridazin-3(2H)-one] |
| 1000 to 10000 nM | – | C[C@@H](CON(C)C(=O)CC1CCN(c2ncc(C(F)(F)F)cn2)CC1)Nc1cn[nH]c(=O)c1C(F)(F)F [Example 45, (S)—N-methyl-N-(2-((6-oxo-5-(trifluoromethyl)-1,6-dihydropyridazin-4-yl)amino)propoxy)-2-(1-(5-(trifluoromethyl)pyrimidin-2-yl)piperidin-4-yl)acetamide] |
| 1000 to 10000 nM | – | C[C@@H](CONC(=O)CN1CCC2(CCN(c3ncc(C(F)(F)F)cn3)CC2)C1)Nc1cn[nH]c(=O)c1C(F)(F)F [Example 56, (S)—N-(2-((6-oxo-5-(trifluoromethyl)-1,6-dihydropyridazin-4-yl)amino)propoxy)-2-(8-(5-(trifluoromethyl)pyrimidin-2-yl)-2,8-diazaspiro(4.5)decan-2-yl)acetamide] |
| 1000 to 10000 nM | – | CC1CN(c2ncc(C(F)(F)F)cn2)CCC1CC(=O)NOC[C@H](C)Nc1cn[nH]c(=O)c1C(F)(F)F (stereo partly drawn) [Example 52, 2-(3-methyl-1-(5-(trifluoromethyl)pyrimidin-2-yl)piperidin-4-yl)-N—((S)-2-((6-oxo-5-(trifluoromethyl)-1,6-dihydropyridazin-4-yl)amino)propoxy)acetamide] |
| 100 to 1000 nM | – | C[C@@H](CONC(=O)CC1CCN(c2ccc(C#N)cn2)CC1)Nc1cn[nH]c(=O)c1C(F)(F)F [Example 34, (S)-2-(1-(5-cyanopyridin-2-yl)piperidin-4-yl)-N-(2-((6-oxo-5-(trifluoromethyl)-1,6-dihydropyridazin-4-yl)amino)propoxy)acetamide] |
